Measurements as given in ChEMBL document CHEMBL1134946, “Synthesis and NK(1)/NK(2) binding activities of a series of diacyl-substituted 2-arylpiperazines” (Bioorg Med Chem Lett, 2002).

Columns and labels:
Substance-P receptor [1] = target: Substance-P receptor (Homo sapiens, UniProt P25103); assay: Binding affinity in membrane preparations containing recombinant human Tachykinin receptor 1 in CHO cells by using [3H]-Sar SP as the radioligand.; format: cell membranes
Substance-K receptor [2] = target: T1, Substance-K receptor (Homo sapiens, UniProt P21452); assay: Binding affinity in membrane preparations containing recombinant human Tachykinin receptor 2 in CHO cells by using [3H]NKA as the radioligand.; format: cell membranes
T1 sequence (P21452 whole entry): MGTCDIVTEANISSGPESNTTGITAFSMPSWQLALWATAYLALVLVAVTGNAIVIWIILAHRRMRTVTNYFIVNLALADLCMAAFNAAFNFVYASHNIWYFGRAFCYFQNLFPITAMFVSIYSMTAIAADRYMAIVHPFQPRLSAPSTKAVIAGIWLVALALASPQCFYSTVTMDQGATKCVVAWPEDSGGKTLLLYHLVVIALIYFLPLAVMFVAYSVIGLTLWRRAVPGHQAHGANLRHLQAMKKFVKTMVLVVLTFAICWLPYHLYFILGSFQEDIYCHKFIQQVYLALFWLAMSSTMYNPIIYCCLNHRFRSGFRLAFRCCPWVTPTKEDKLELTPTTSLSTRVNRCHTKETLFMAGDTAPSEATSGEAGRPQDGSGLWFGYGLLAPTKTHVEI

Substance-P receptor [3] = target: Substance-P receptor (Cavia porcellus, UniProt P30547); assay: Inhibition of the SP-induced NK1-mediated enhancement of the EFS-induced sympathetic neurogenic contractions of gpvd, used as a measure of antagonist activity.; format: functional; conditions: read-out: pA2 (converted)
Chain of Substance-P receptor (Cavia porcellus, UniProt P30547) (P30547 whole entry): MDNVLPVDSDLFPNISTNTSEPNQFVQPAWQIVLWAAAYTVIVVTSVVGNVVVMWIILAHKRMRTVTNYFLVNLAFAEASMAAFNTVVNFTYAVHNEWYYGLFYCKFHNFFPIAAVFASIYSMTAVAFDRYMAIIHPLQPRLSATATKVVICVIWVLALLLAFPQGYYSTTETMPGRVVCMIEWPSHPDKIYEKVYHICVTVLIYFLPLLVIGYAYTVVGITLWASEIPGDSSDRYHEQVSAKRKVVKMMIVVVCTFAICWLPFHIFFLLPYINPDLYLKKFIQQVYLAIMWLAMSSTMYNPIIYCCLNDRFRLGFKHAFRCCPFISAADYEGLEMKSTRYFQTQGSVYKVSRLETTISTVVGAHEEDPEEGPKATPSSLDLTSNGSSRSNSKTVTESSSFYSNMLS

Substance-K receptor [4] = target: T2, Substance-K receptor (Mesocricetus auratus, UniProt P51144); assay: Inhibition of NKA-induced airway contraction of isolated hamster trachea (ht) was used as a measure of NK2-receptor antagonist activity.; format: functional, tissue-based; conditions: read-out: pA2 (converted)
T2 sequence (P51144 whole entry): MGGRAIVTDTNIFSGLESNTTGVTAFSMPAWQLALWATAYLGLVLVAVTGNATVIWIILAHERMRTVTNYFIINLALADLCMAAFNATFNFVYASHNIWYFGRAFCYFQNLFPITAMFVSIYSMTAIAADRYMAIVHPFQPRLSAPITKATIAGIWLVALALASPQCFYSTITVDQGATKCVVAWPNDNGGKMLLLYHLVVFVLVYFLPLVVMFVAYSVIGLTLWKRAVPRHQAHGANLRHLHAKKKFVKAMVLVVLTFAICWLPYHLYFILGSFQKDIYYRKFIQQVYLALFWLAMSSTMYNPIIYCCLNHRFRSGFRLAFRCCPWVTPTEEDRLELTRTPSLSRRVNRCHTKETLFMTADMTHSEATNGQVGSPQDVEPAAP

Chain of Substance-P receptor (Homo sapiens, UniProt P25103) (P25103 whole entry): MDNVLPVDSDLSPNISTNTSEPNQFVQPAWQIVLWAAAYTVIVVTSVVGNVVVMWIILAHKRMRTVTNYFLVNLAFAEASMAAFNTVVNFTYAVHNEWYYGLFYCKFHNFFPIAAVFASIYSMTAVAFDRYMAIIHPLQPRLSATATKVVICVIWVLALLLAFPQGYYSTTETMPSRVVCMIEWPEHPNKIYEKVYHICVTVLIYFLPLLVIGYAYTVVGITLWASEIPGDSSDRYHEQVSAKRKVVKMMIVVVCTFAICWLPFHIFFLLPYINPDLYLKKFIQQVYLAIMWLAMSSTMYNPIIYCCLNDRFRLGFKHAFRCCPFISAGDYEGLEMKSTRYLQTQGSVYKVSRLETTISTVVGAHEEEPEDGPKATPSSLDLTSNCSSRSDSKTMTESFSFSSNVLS

Ki (Substance-P receptor [1])	Ki (Substance-K receptor [2])	Kb (Substance-P receptor [3])	Kb (Substance-K receptor [4])	SMILES
215 nM	20 nM			Cc1cc(C)cc(C(=O)N2CCN(C(=O)CNC3CCNCC3)[C@H](c3ccc(Cl)c(Cl)c3)C2)c1
7.1 nM	27 nM			COc1cc(OC)cc(C(=O)N2CCN(C(=O)CNC3CCN(Cc4ccccc4)CC3)C(c3ccc(Cl)c(Cl)c3)C2)c1 (centres undefined)
48 nM	> 1000 nM			O=C(CN1CCN(Cc2ccccc2)CC1)N1CCN(Cc2cc(C(F)(F)F)cc(C(F)(F)F)c2)CC1c1ccccc1 (centres undefined)
136 nM	> 1000 nM			O=C(Cc1cc(C(F)(F)F)cc(C(F)(F)F)c1)N1CCN(C(=O)CNC2CCN(Cc3ccccc3)CC2)C(c2ccccc2)C1 (centres undefined)
35 nM	1.3 nM			Cc1cc(C)cc(C(=O)N2CCN(C(=O)CNC3CCN(Cc4cc[nH]c4)CC3)[C@H](c3ccc(Cl)c(Cl)c3)C2)c1
32 nM	7 nM			Cc1cc(C)cc(C(=O)N2CCN(C(=O)CNC3CCN(C(=O)[C@H](N)Cc4ccc(O)cc4)CC3)[C@H](c3ccc(Cl)c(Cl)c3)C2)c1
37 nM	> 1000 nM			O=C(CN1CCC(Cc2ccccc2)CC1)N1CCN(Cc2cc(C(F)(F)F)cc(C(F)(F)F)c2)CC1c1ccccc1 (centres undefined)
11 nM	1.1 nM			Cc1cc(C)cc(C(=O)N2CCN(C(=O)CNC3CCN(C(=O)[C@H](N)Cc4ccccc4)CC3)[C@H](c3ccc(Cl)c(Cl)c3)C2)c1
48 nM	> 1000 nM			CC(=O)NC1(c2ccccc2)CCN(CC(=O)N2CCN(Cc3cc(C(F)(F)F)cc(C(F)(F)F)c3)CC2c2ccccc2)CC1 (centres undefined)
112 nM	124 nM			COc1cc(C(=O)N2CCN(C(=O)CNC3CCN(Cc4ccccc4)CC3)C(c3ccc(Cl)c(Cl)c3)C2)cc(OC)c1OC (centres undefined)
28 nM	> 1000 nM			O=C(CN1CCN(Cc2ccccc2)CC1)N1CCN(Cc2cc(C(F)(F)F)cc(C(F)(F)F)c2)CC1c1ccc(Cl)c(Cl)c1 (centres undefined)
135 nM	> 1000 nM			CN1CCN(C(=O)CNC2CCN(Cc3ccccc3)CC2)C(c2ccccc2)C1 (centres undefined)
148 nM	> 1000 nM			CC(=O)NC1(c2ccccc2)CCN(CC(=O)N2CCN(Cc3cc(C(F)(F)F)cc(C(F)(F)F)c3)CC2c2ccc(Cl)c(Cl)c2)CC1 (centres undefined)
32 nM	> 1000 nM			O=C(CN1CCC(O)(c2ccccc2)CC1)N1CCN(Cc2cc(C(F)(F)F)cc(C(F)(F)F)c2)CC1c1ccc(Cl)c(Cl)c1 (centres undefined)
30 nM	175 nM			O=C(CNC1CCN(Cc2ccccc2)CC1)N1CCN(Cc2cc(C(F)(F)F)cc(C(F)(F)F)c2)CC1c1ccc(Cl)c(Cl)c1 (centres undefined)
7.7 nM	14 nM			O=C(c1cc(Cl)cc(Cl)c1)N1CCN(C(=O)CNC2CCN(Cc3ccccc3)CC2)C(c2ccc(Cl)c(Cl)c2)C1 (centres undefined)
92 nM	3 nM			Cc1cc(C)cc(C(=O)N2CCN(C(=O)CNC3CCN(Cc4ncc[nH]4)CC3)[C@H](c3ccc(Cl)c(Cl)c3)C2)c1

Ki (Substance-P receptor [1])	Ki (Substance-K receptor [2])	Kb (Substance-P receptor [3])	Kb (Substance-K receptor [4])	SMILES
13 nM	> 1000 nM			O=C(CN1CCC(O)(c2ccccc2)CC1)N1CCN(Cc2cc(C(F)(F)F)cc(C(F)(F)F)c2)CC1c1ccccc1 (centres undefined)
21 nM	3.2 nM			Cc1cc(C)cc(C(=O)N2CCN(C(=O)CNC3CCN(C(=O)[C@@H](N)Cc4ccccc4)CC3)[C@H](c3ccc(Cl)c(Cl)c3)C2)c1
		79.4 nM		O=C(c1cc(C(F)(F)F)cc(C(F)(F)F)c1)N1CCN(C(=O)CNC2CCN(Cc3ccccc3)CC2)C(c2ccc(Cl)c(Cl)c2)C1 (centres undefined)
17 nM	300 nM			O=C(CNC1CCN(Cc2ccccc2)CC1)N1CCN(Cc2cc(C(F)(F)F)cc(C(F)(F)F)c2)CC1c1ccccc1 (centres undefined)
110 nM	> 1000 nM			O=C(CN1CCC(Cc2ccccc2)CC1)N1CCN(Cc2cc(C(F)(F)F)cc(C(F)(F)F)c2)CC1c1ccc(Cl)c(Cl)c1 (centres undefined)
> 1000 nM	> 1000 nM			O=C(c1cc(O)cc(O)c1)N1CCN(C(=O)CNC2CCN(Cc3ccccc3)CC2)C(c2ccc(Cl)c(Cl)c2)C1 (centres undefined)
42 nM	1.1 nM			Cc1cc(C)cc(C(=O)N2CCN(C(=O)CNC3CCN(C(=O)[C@@H](N)c4ccccc4)CC3)[C@H](c3ccc(Cl)c(Cl)c3)C2)c1
23 nM	22 nM			O=C(c1cc(F)cc(F)c1)N1CCN(C(=O)CNC2CCN(Cc3ccccc3)CC2)C(c2ccc(Cl)c(Cl)c2)C1 (centres undefined)
3.2 nM	14 nM			O=C(c1cc(Br)cc(Br)c1)N1CCN(C(=O)CNC2CCN(Cc3ccccc3)CC2)C(c2ccc(Cl)c(Cl)c2)C1 (centres undefined)
		6.31 nM		Cc1cc(C)cc(C(=O)N2CCN(C(=O)CNC3CCN(Cc4ccccc4)CC3)[C@@H](c3ccc(Cl)c(Cl)c3)C2)c1
> 1000 nM	> 1000 nM			COc1cc(CC(=O)N2CCN(C(=O)CNC3CCN(Cc4ccccc4)CC3)C(c3ccc(Cl)c(Cl)c3)C2)cc(OC)c1OC (centres undefined)
15 nM	1.3 nM			CC(=O)Nc1ccc(CN2CCC(NCC(=O)N3CCN(C(=O)c4cc(C)cc(C)c4)C[C@H]3c3ccc(Cl)c(Cl)c3)CC2)cc1
		316 nM	316 nM	Cc1cc(C)cc(C(=O)N2CCN(C(=O)CNC3CCN(Cc4ccccc4)CC3)C(c3ccc(Cl)c(Cl)c3)C2)c1 (centres undefined)
143 nM	16 nM			Cc1cc(C)cc(C(=O)N2CCN(C(=O)CNC3CCN(C(=O)[C@H](N)c4ccccc4)CC3)[C@H](c3ccc(Cl)c(Cl)c3)C2)c1
70 nM	28 nM			Cc1cc(C)cc(C(=O)N2CCN(C(=O)CNC3CCN(C(=O)[C@H](N)Cc4c[nH]c5ccccc45)CC3)[C@H](c3ccc(Cl)c(Cl)c3)C2)c1
52 nM	0.9 nM			CC(=O)Nc1nc(CN2CCC(NCC(=O)N3CCN(C(=O)c4cc(C)cc(C)c4)C[C@H]3c3ccc(Cl)c(Cl)c3)CC2)cs1
